We go through 19 compounds from patent US10968193B2, “Antidiabetic bicyclic compounds” (Merck Sharp & Dohme Corp., priority 2014, dated 2021).

This assay addresses T1, human GPR40 (Homo sapiens, UniProt O14842).
T1 construct: expressed in transfected cells; host or cells: HEK cells stably expressing the aequorin reporter
Put plainly: Inositol Phosphate Turnover (IP1) Assay 2. It is filed as cell-based. Conditions: HEK cells stably expressing human GPR40; 15,000 cells per well; compound acoustically transferred; CisBio IP-One kit. The method, then:
Human and mouse GPR40 stable cell-lines were generated in CHO cells stably expressing NFAT BLA (Beta-lactamase). A human GPR40 stable cell-line was generated in HEK cells stably expressing the aequorin expressing reporter. The expression plasmids were transfected using lipofectamine (Life Technologies) following manufacturer's instructions. Stable cell-lines were generated following drug selection.
Inositol Phosphate Turnover (IP1) Assay 2:
The assay was performed in 384-well format. HEK cells stably expressing human GPR40 were plated at 15,000 cells per well in growth medium (DMEM/10% fetal calf serum). Cell plates were then incubated 16 hours at 37 degrees in a 5% CO2 incubator.
Measurement of Inositol Phosphate Turnover (IP1) was performed using the CisBio IP-One kit (Part number 62IPAPEB). After the 16 hour incubation, the cells were washed with HEPES buffer and 10 ul of stimulation buffer (prepared as described in the kit) was added to each well. In a separate plate, compounds were diluted in DMSO (400-fold over the final concentration in the assay well) and 25 nl was acoustically transferred to the appropriate well in the assay cell plate. The plates were then incubated for 60 minutes at 37 degrees. 10 ul of detection buffer (also prepared as described in the IP-One kit) was added to each well and the plates were incubated for 60 minutes in the dark. The plates were then read in a Perkin Elmer EnVision or equivalent reader able to measure FRET. Fluorescent ratio of emission at 665 and 620 nm was then converted to IP1 concentration by back calculating from an IP1 standard curve prepared at the time of the assay.

One may read the EC50 as the concentration giving half of the maximal effect. Read a low EC50 as a more potent agent.

T1 sequence (O14842 whole entry): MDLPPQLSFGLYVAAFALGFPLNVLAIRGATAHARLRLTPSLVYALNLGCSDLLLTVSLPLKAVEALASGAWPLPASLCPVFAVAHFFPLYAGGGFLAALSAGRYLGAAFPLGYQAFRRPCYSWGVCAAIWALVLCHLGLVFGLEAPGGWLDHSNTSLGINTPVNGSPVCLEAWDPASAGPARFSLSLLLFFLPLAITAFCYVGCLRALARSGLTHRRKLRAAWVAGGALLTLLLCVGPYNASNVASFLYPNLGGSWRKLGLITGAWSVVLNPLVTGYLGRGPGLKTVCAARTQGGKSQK

As to `COc1cc(-c2ccc(C3CCc4ccc([C@H](C5CC5)[C@H](C)C(=O)O)cc4O3)cc2CN2CC[C@H](O)C2)c(F)cn1` (stereo partly shown) [Example 7], the EC50 came to 118 nM. With `COc1cc(-c2ccc([C@@H]3CCc4ccc([C@H](C5CC5)[C@H](C)C(=O)O)cc4O3)cc2CN2CCCCC2)c(F)cn1` [Example 151] the figure was 2 nM; with `COc1cc(-c2ccc(C3CCc4ccc([C@H](C5CC5)[C@H](C)C(=O)O)cc4O3)cc2CN2CCOC3(CC3)C2)c(F)cn1` (mixture of isomers) [Example 42], 3.1 nM; with `COc1cc(-c2ccc(C3CCc4ccc([C@H](C5CC5)[C@H](C)C(=O)O)cc4O3)cc2CN2CCOCC23CCC3)c(F)cn1` (mixture of isomers) [Example 71], 0.7 nM.

Consider `COc1cc(-c2ccc(C3CCc4ccc([C@H](C5CC5)[C@H](C)C(=O)O)cc4O3)cc2CN2CC[C@H](S(C)(=O)=O)C2)c(F)cn1` (stereo partly shown) [Example 6], for which the EC50 was found to be 227 nM. Take `COc1cc(-c2ccc([C@@H]3CCc4ccc([C@H](C5CC5)[C@H](C)C(=O)O)cc4O3)cc2CNCC(F)(F)F)c(F)cn1` [Example 150]: the response was half-maximal at 1 nM (EC50). For the compound `COc1cc(-c2ccc(C3CCc4ccc([C@H](C5CC5)[C@H](C)C(=O)O)cc4O3)cc2CN2CC[C@H](C(F)(F)F)C2)c(F)cn1` (single isomer, unassigned) [Example 30], the EC50 came out at 1.5 nM. Under `COc1cc(-c2ccc(C3CCc4ccc([C@H](C5CC5)[C@H](C)C(=O)O)cc4O3)cc2CN2C3CCC2COC3)c(F)cn1` (stereo partly shown) [Example 68] stands 0.7 nM; under `COc1cc(-c2ccc(C3CCc4ccc([C@H](C5CC5)[C@H](C)C(=O)O)cc4O3)cc2CN2CCC(F)(F)CC2)c(F)cn1` (mixture of isomers) [Example 46], 1 nM; under `COc1cc(-c2ccc(C3CCc4ccc([C@H](C5CC5)[C@H](C)C(=O)O)cc4O3)cc2CN2CCC2C(F)(F)F)c(F)cn1` (stereo partly shown) [Example 72], 1.2 nM. Turning to `COc1cc(-c2ccc([C@H]3CCc4ccc([C@H](C5CC5)[C@H](C)C(=O)O)cc4O3)cc2CN2CCCC(C)(C)C2)c(F)cn1` [Example 142], a half-maximal effect (EC50) was put at 1.1 nM.

As for `COc1cc(-c2ccc(C3CCc4ccc([C@H](C5CC5)[C@H](C)C(=O)O)cc4O3)cc2CN2CCOCC2(C)C)c(F)cn1` (mixture of isomers) [Example 59], the EC50 was 0.98 nM.

Regarding `COc1cc(-c2ccc([C@@H]3CCc4ccc([C@H](C5CC5)[C@H](C)C(=O)O)cc4O3)cc2CN2CCC(C)(C)CC2)c(F)cn1` [Example 155], the response was half-maximal at 1.8 nM (EC50). Regarding `COc1cc(-c2ccc(C3CCc4ccc([C@H](C5CC5)[C@H](C)C(=O)O)cc4O3)cc2CN2CCCC2(C)C)c(F)cn1` (mixture of isomers) [Example 66], the midpoint of the response, the EC50, lay at 0.65 nM.

As to `COc1cc(-c2ccc([C@H]3CCc4ccc([C@H](C5CC5)[C@H](C)C(=O)O)cc4O3)cc2CN2CCCC[C@@H]2C)c(F)cn1` [Example 168], the EC50 amounted to 2.9 nM. Under `COc1cc(-c2ccc(C3CCc4ccc([C@H](C5CC5)[C@H](C)C(=O)O)cc4O3)cc2CN(C)CC(F)(F)F)c(F)cn1` (single isomer, unassigned) [Example 21] stands 0.76 nM; under `COc1cc(-c2ccc(C3CCc4ccc([C@H](C5CC5)[C@H](C)C(=O)O)cc4O3)cc2CN2CCC2(C)C)c(F)cn1` (mixture of isomers) [Example 49], 4 nM; under `COc1cc(-c2ccc(C3CCc4ccc([C@H](C5CC5)[C@H](C)C(=O)O)cc4O3)cc2CN2CCCC2)c(C#N)cn1` (mixture of isomers) [Example 78, (2S,3R)-3-(2-(4-(5-cyano-2-methoxypyridin-4-yl)-3-(pyrrolidin-1-ylmethyl)phenyl)chroman-7-yl)-3-cyclopropyl-2-methylpropanoic acid], 8 nM.

For the compound `COC[C@@H]1CCCN1Cc1cc(C2CCc3ccc([C@H](C4CC4)[C@H](C)C(=O)O)cc3O2)ccc1-c1cc(OC)ncc1F` (stereo partly shown) [Example 36], the EC50 amounted to 2.1 nM.
